Reference: US20090142816A1, “GLIOCLADIUM ISOLATE C-13 AND METHODS OF ITS USE FOR PRODUCING VOLATILE COMPOUNDS AND HYDROCARBONS” (priority 2007, published 2009)
“Also recorded” adds a separate entry of the source.

What was measured:
Assay in all cases: PDA plate bioassay of artificial VOC mixture / [8]annulene, two day exposure
Assay type in all cases: cell-based
Aspergillus ochraceus = system: Aspergillus ochraceus
Experimental: (§1) An artificial mixture of compounds, as well as [8]annulene, that were positively identified in the atmosphere of the Gliocladium sp., were subjected to PDA plate bioassay tests for a two day exposure period. They were available from Sigma-Aldrich (St. Louis, Mo.) or were prepared via organic synthetic techniques (Strobel et al., Microbiology 147: 2943-2950, 2001). Varying amounts (non-equilibrium conditions) of the mixtures of the VOCs (0.8-30 μl) were placed in a small sterile plastic microcup (4×6 mm) that was firmly fixed in the middle of the test plate, and then test organisms were inoculated around the periphery of the agar surface. The amount of each VOC used was calculated from relative areas (RA's) in Table 2. […] Measurements of fungal growth were made and compared to growth on a control PDA plate having no test compounds. The IC50 and IC100 values were calculated from data plots of inhibition of fungal growth as a function of VOC concentrations (Strobel et al., Microbiology 147: 2943-2950, 2001). The IC values are presented as the amount of VOCs (volume per ml of air space in the Petri plate above the fungal culture). Studies were done in triplicate and the data averaged and standard deviations determined (Strobel et al., Microbiology 147: 2943-2950, 2001). Each test organism, after the two day exposure was tested for its viability by placing it on a fresh plate of PDA.
(§2) The test fungi were exposed to amounts of the VOC's varying from 0.8 μl to 30 μl (non-equilibrium conditions in a 50 ml air space volume above the fungal culture on the Petri plate) and exposed to them for two days after which growth rates were measured and the IC50's and IC100's calculated.
(§3) The artificial mixture was prepared based on the ratios of the compounds identified by GC/MS. The IC50's were calculated on the basis of the μl VOCs/ml of the free gas space in the Petri plate above the fungal culture. The IC100's were extrapolated from the curves obtained by plotting fungal inhibition vs. VOC concentration. The IC100's represent the approximate concentration required to give 100% inhibition of fungal growth. Viability was evaluated by transferring the fungal to a regular PDA plate after exposure to the VOC mixtures.
(§4) The IC50's were calculated on the basis of the μl [8]annulene/ml of the free gas space in the Petri plate above the fungal culture. The IC50's and IC100's were calculated in the same manner as described in Example 1. The IC100's represent the approximate concentration required to give 100% inhibition of fungal growth. Viability was tested by transferring the fungal to a regular PDA plate after exposure to [8]annulene.

Gliocladium sp. = system: Gliocladium sp.
Experimental: as §1, §2, §3, §4

Fusarium oxysporum = system: Fusarium oxysporum
Experimental: as §1, §2, §3, §4

Rhizoctonia solani = system: Rhizoctonia solani
Experimental: as §1, §2, §3, §4

Geotrichum candidum = system: Geotrichum candidum
Experimental: as §1, §2, §3, §4

Verticillium dahliae = system: Verticillium dahliae
Experimental: as §1, §2, §3, §4

Pythium ultimum = system: Pythium ultimum
Experimental: as §1, §2, §3, §4

Sclerotinia sclerotiorum = system: Sclerotinia sclerotiorum
Experimental: as §1, §2, §3, §4

[1] = after exposure at the IC100 level, placed on fresh agar plate
[2] = two day exposure, approximate concentration for 100% inhibition, extrapolated from inhibition curves
[3] = two day exposure, μl per ml of free gas space in the Petri plate

C1=CC=CC=CC=C1 [[8]annulene, 1,3,5,7-cyclooctatetraene]
Viability (Aspergillus ochraceus; [1]): alive
IC100 (Aspergillus ochraceus; [2]): 0.50 μl/ml
IC50 (Aspergillus ochraceus; [3]): 0.08 ± 0.01 μl/ml
Viability (Gliocladium sp.; [1]): alive
IC100 (Gliocladium sp.; [2]): 0.60 μl/ml
IC50 (Gliocladium sp.; [3]): 0.30 ± 0.01 μl/ml
Viability (Fusarium oxysporum; [1]): alive
IC100 (Fusarium oxysporum; [2]): 0.70 μl/ml
IC50 (Fusarium oxysporum; [3]): 0.28 ± 0.03 μl/ml
Viability (Rhizoctonia solani; [1]): alive
IC100 (Rhizoctonia solani; [2]): 0.40 μl/ml
IC50 (Rhizoctonia solani; [3]): 0.14 ± 0.08 μl/ml
Viability (Geotrichum candidum; [1]): alive
IC100 (Geotrichum candidum; [2]): 0.44 μl/ml
IC50 (Geotrichum candidum; [3]): 0.10 ± 0.02 μl/ml
Viability (Verticillium dahliae; [1]): alive
IC100 (Verticillium dahliae; [2]): 0.30 μl/ml
IC50 (Verticillium dahliae; [3]): 0.18 ± 0.00 μl/ml
Viability (Pythium ultimum; [1]): did not die; also recorded: alive
IC100 (Pythium ultimum; [2]): 0.30 μl/ml
IC50 (Pythium ultimum; [3]): 0.10 ± 0.04 μl/ml
Viability (Sclerotinia sclerotiorum; [1]): did not die; also recorded: alive
IC100 (Sclerotinia sclerotiorum; [2]): 0.30 μl/ml
IC50 (Sclerotinia sclerotiorum; [3]): 0.05 ± 0.01 μl/ml
